Source: paper PMC10611619, “[^99mTc]Tc-PentixaTec: development, extensive pre-clinical evaluation, and first human experience” (European Journal of Nuclear Medicine and Molecular Imaging, 2023)
Where a SMILES comes first, the peptide text is derived from it. Side-chain parts run from the residue outwards. [ ]: non-standard residue; d: D form. The star is where a group is joined. 2Nal = N[C@@H](Cc1ccc2ccccc2c1)C(=O)O; dNMeOrn = CN[C@H](CCCN)C(=O)O; 4Abz = Nc1ccc(C(=O)O)cc1; X1 = NCCNCC(CNCCN)C(=O)*; dDap = NC[C@@H](N)C(=O)O

Assay: Patient radiation dosimetry (OLINDA/EXM, RADAR/MIRD)
Format: in vivo, human
Settings: for Absorbed organ dose Muscle / Absorbed organ dose Osteogenic cells / Absorbed organ dose Ovaries / Absorbed organ dose Pancreas / Absorbed organ dose Red marrow / Absorbed organ dose Skin / Absorbed organ dose Small intestine / Absorbed organ dose Spleen / Absorbed organ dose Stomach wall / Absorbed organ dose Thymus / Absorbed organ dose Thyroid / Absorbed organ dose Total body / Absorbed organ dose ULI wall / Absorbed organ dose Urinary bladder wall / Absorbed organ dose Uterus / Absorbed organ dose Adrenals / Absorbed organ dose Brain / Absorbed organ dose Breast / Absorbed organ dose Gallbladder wall / Absorbed organ dose Heart wall / Absorbed organ dose Kidneys / Absorbed organ dose LLI wall / Absorbed organ dose Liver / Absorbed organ dose Lungs / Absorbed organ dose Testes: per 1 MBq
Method: Radiation dosimetry calculations were performed using the RADAR (Radiation Dose Assessment Resource) method as implemented in the OLINDA/EXM software and according to the recommendations of the Medical Internal Radiation Dose (MIRD) committee. The individual absorbed organ doses (ODs) and the effective doses (EDs) were corrected to consider the current tissue weighting factors of ICRP 103 [38]. For a detailed description of image analysis for dosimetry, please refer to the supplementary materials section.
The Xeleris^TM Dosimetry Toolkit (GE Healthcare, Milwaukee, USA) was used to perform full organ segmentation by an experienced user. This was performed manually on CT images of organs (kidneys, liver, spleen, heart, lungs, lumbar vertebrae 2-4) to define the regions and volumes of interest (VOIs) for gamma camera scans and SPECT analysis. Quantification of the activity in the VOIs was carried out as converting counts in the VOIs by a calibration factor to the average activity per milliliter and per organ.
The VOIs were transferred from SPECT/CT to the planar images. Additional ROIs for the whole body and a background region adjacent to the head were drawn on the planar images.
The VOIs were used to determine the masses of the individual organs. For the lungs, a density of 0.288 g/mL was used. For all organs not covered by any VOI, the uptake was summed as the contribution from the remainder of the body in the dose calculation.
The time-integrated activity coefficients of all contoured organs were determined using the hybrid planar/SPECT method. Thus, the shape of the time-activity curves were estimated based on the planar images using the NUKFIT software and then scaled to activity values using the SPECT/CT. The accumulated activity in the bone marrow was calculated using the activity in the lumbar vertebrae 2-4 with the assumption that these contain 6.7% of the red bone marrow.
Radiation dosimetry calculations were performed using the RADAR (Radiation Dose Assessment Resource) method as implemented in the OLINDA/EXM software and according to the recommendations of the Medical Internal Radiation Dose (MIRD) committee. The OLINDA/EXM application (version 1.0) was used to calculate the individual absorbed organ doses (ODs) and the effective doses (EDs) by using the time-integrated activity coefficients and the individual patients’ organ masses. A mass of 1500 g for the red bone marrow as assumed for all patients. The EDs were afterwards corrected to consider the current tissue weighting factors of ICRP 103 [16]. The absorbed OD and ED were evaluated for each patient and then averaged across all the patients.

With `C[C@@H](NC(=O)[C@@H](CCCNC(=N)N)NC(=O)[C@@H](CN)NC(=O)C(CNCCN)CNCCN)C(=O)Nc1ccc(C(=O)NCCC[C@@H]2C(=O)N[C@@H](CCCNC(=N)N)C(=O)N[C@@H](Cc3ccc4ccccc4c3)C(=O)NCC(=O)N[C@H](Cc3ccc(O)cc3)C(=O)N2C)cc1` [[^99mTc]Tc-N4-L6-CPCR4, [^99mTc]Tc-N4-dap-r-a-Abz-CPCR4, metal not drawn] (cyclo([dY][dNMeOrn]([4Abz-dA-dR-dDap-X1])R[2Nal]G)) the “Absorbed organ dose Muscle” value (Patient 3) was 0.0044 mGy, the “Absorbed organ dose Osteogenic cells” value (Patient 3) was 0.0184 mGy and the “Absorbed organ dose Ovaries” value (Patient 3) was 0.0064 mGy. The “Absorbed organ dose Pancreas” value (Patient 3) was 0.0092 mGy, the “Absorbed organ dose Red marrow” value (Patient 3) was 0.0123 mGy and the “Absorbed organ dose Skin” value (Patient 3) was 0.0027 mGy. The “Absorbed organ dose Small intestine” value (Patient 3) was 0.0062 mGy, the “Absorbed organ dose Spleen” value (Patient 3) was 0.0202 mGy and the “Absorbed organ dose Stomach wall” value (Patient 3) was 0.0066 mGy. For the same compound, the “Absorbed organ dose Thymus” value (Patient 3) was 0.0045 mGy, the “Absorbed organ dose Thyroid” value (Patient 3) was 0.0039 mGy and the “Absorbed organ dose Total body” value (Patient 3) was 0.0052 mGy. The “Absorbed organ dose ULI wall” value (Patient 3) was 0.0063 mGy, the “Absorbed organ dose Urinary bladder wall” value (Patient 3) was 0.0053 mGy and the “Absorbed organ dose Uterus” value (Patient 3) was 0.0059 mGy. The “Absorbed organ dose Adrenals” value (Patient 4) was 0.00524 mGy, the “Absorbed organ dose Brain” value (Patient 4) was 0.00278 mGy and the “Absorbed organ dose Breast” value (Patient 4) was 0.00227 mGy. For the same compound, the “Absorbed organ dose Gallbladder wall” value (Patient 4) was 0.00502 mGy, the “Absorbed organ dose Heart wall” value (Patient 4) was 0.00317 mGy and the “Absorbed organ dose Kidneys” value (Patient 4) was 0.00936 mGy. The “Absorbed organ dose LLI wall” value (Patient 4) was 0.00428 mGy, the “Absorbed organ dose Liver” value (Patient 4) was 0.00636 mGy and the “Absorbed organ dose Lungs” value (Patient 4) was 0.00337 mGy. The “Absorbed organ dose Muscle” value (Patient 4) was 0.00318 mGy, the “Absorbed organ dose Osteogenic cells” value (Patient 4) was 0.011 mGy and the “Absorbed organ dose Ovaries” value (Patient 4) was 0.00451 mGy. For the same compound, the “Absorbed organ dose Pancreas” value (Patient 4) was 0.00571 mGy, the “Absorbed organ dose Red marrow” value (Patient 4) was 0.00617 mGy and the “Absorbed organ dose Skin” value (Patient 4) was 0.00209 mGy. The “Absorbed organ dose Small intestine” value (Patient 4) was 0.00455 mGy, the “Absorbed organ dose Spleen” value (Patient 4) was 0.0188 mGy and the “Absorbed organ dose Stomach wall” value (Patient 4) was 0.00441 mGy. The “Absorbed organ dose Testes” value (Patient 4) was 0.00282 mGy, the “Absorbed organ dose Thymus” value (Patient 4) was 0.00324 mGy and the “Absorbed organ dose Thyroid” value (Patient 4) was 0.00329 mGy. The “Absorbed organ dose Total body” value (Patient 4) was 0.00351 mGy, the “Absorbed organ dose ULI wall” value (Patient 4) was 0.00441 mGy and the “Absorbed organ dose Urinary bladder wall” value (Patient 4) was 0.00385 mGy. For the same compound, the “Absorbed organ dose Uterus” value (Patient 4) was 0.0044 mGy, the “Absorbed organ dose Adrenals” value (Range Max) was 0.0083 mGy and the “Absorbed organ dose Brain” value (Range Max) was 0.0039 mGy. The “Absorbed organ dose Breast” value (Range Max) was 0.0032 mGy, the “Absorbed organ dose Gallbladder wall” value (Range Max) was 0.0073 mGy and the “Absorbed organ dose Heart wall” value (Range Max) was 0.0054 mGy. For the same compound, the “Absorbed organ dose Kidneys” value (Range Max) was 0.0137 mGy, the “Absorbed organ dose LLI wall” value (Range Max) was 0.0062 mGy and the “Absorbed organ dose Liver” value (Range Max) was 0.0089 mGy. For the same compound, the “Absorbed organ dose Lungs” value (Range Max) was 0.0079 mGy, the “Absorbed organ dose Muscle” value (Range Max) was 0.0044 mGy and the “Absorbed organ dose Osteogenic cells” value (Range Max) was 0.0184 mGy. The “Absorbed organ dose Ovaries” value (Range Max) was 0.0064 mGy, the “Absorbed organ dose Pancreas” value (Range Max) was 0.0092 mGy and the “Absorbed organ dose Red marrow” value (Range Max) was 0.0135 mGy. The “Absorbed organ dose Skin” value (Range Max) was 0.0027 mGy, the “Absorbed organ dose Small intestine” value (Range Max) was 0.0062 mGy and the “Absorbed organ dose Spleen” value (Range Max) was 0.0238 mGy. The “Absorbed organ dose Stomach wall” value (Range Max) was 0.0066 mGy, the “Absorbed organ dose Testes” value (Range Max) was 0.0028 mGy and the “Absorbed organ dose Thymus” value (Range Max) was 0.0045 mGy. The “Absorbed organ dose Thyroid” value (Range Max) was 0.0039 mGy, the “Absorbed organ dose Total body” value (Range Max) was 0.0052 mGy and the “Absorbed organ dose ULI wall” value (Range Max) was 0.0063 mGy. For the same compound, the “Absorbed organ dose Urinary bladder wall” value (Range Max) was 0.0053 mGy, the “Absorbed organ dose Uterus” value (Range Max) was 0.0059 mGy and the “Absorbed organ dose Adrenals” value (Range Min) was 0.0052 mGy. For the same compound, the “Absorbed organ dose Brain” value (Range Min) was 0.0023 mGy, the “Absorbed organ dose Breast” value (Range Min) was 0.0021 mGy and the “Absorbed organ dose Gallbladder wall” value (Range Min) was 0.0050 mGy. For the same compound, the “Absorbed organ dose Heart wall” value (Range Min) was 0.0032 mGy, the “Absorbed organ dose Kidneys” value (Range Min) was 0.0094 mGy and the “Absorbed organ dose LLI wall” value (Range Min) was 0.0037 mGy. The “Absorbed organ dose Liver” value (Range Min) was 0.0064 mGy, the “Absorbed organ dose Lungs” value (Range Min) was 0.0034 mGy and the “Absorbed organ dose Muscle” value (Range Min) was 0.0028 mGy. The “Absorbed organ dose Osteogenic cells” value (Range Min) was 0.0099 mGy, the “Absorbed organ dose Ovaries” value (Range Min) was 0.0040 mGy and the “Absorbed organ dose Pancreas” value (Range Min) was 0.0055 mGy. The “Absorbed organ dose Red marrow” value (Range Min) was 0.0062 mGy, the “Absorbed organ dose Skin” value (Range Min) was 0.0018 mGy and the “Absorbed organ dose Small intestine” value (Range Min) was 0.0041 mGy. The “Absorbed organ dose Spleen” value (Range Min) was 0.0161 mGy, the “Absorbed organ dose Stomach wall” value (Range Min) was 0.0040 mGy and the “Absorbed organ dose Testes” value (Range Min) was 0.0023 mGy. The “Absorbed organ dose Thymus” value (Range Min) was 0.0030 mGy, the “Absorbed organ dose Thyroid” value (Range Min) was 0.0028 mGy and the “Absorbed organ dose Total body” value (Range Min) was 0.0028 mGy. For the same compound, the “Absorbed organ dose ULI wall” value (Range Min) was 0.0040 mGy, the “Absorbed organ dose Urinary bladder wall” value (Range Min) was 0.0033 mGy and the “Absorbed organ dose Uterus” value (Range Min) was 0.0038 mGy. For the same compound, the “effective dose, range” value (per 500 MBq) was 2.1–3.4 mSv and the “effective dose, median” value (standard activity of 500 MBq) was 2.7 mSv.
